The record followed here is patent publication US20210299198A1, “DIABETES-ALLEVIATING OR ANTIOXIDANT COMPOSITION COMPRISING YEAST EXTRACT AND METHOD FOR PREPARING YEAST EXTRACT” (COENBIO CO., LTD., priority 2018, published 2021).

A short description of test [1]: Radical cation de-colorization assay using ABTS. Format: biochemical. The protocol: 7 mM ABTS was mixed with 2.45 mM potassium persulfate and incubated at room temperature for 16 h to create ABTS cations (ABTS^+). […] The results are shown in Tables 5 and 6 (see FIGS. 4 and 8).
Test [2] can be described thus: Free radical scavenging assay using DPPH. Type of test: biochemical. The protocol: An antioxidant scavenges DPPH radicals, losing its original color and being made transparent. The test sample was mixed with 2,2-diphenyl-1-picrylhydrazyl (DPPH, 100 μM) in a ratio of 1:20 and the mixture was stored at 37° C. for 30 min. After completion of the reaction, the absorbance was measured at 517 nm using a spectrophotometer. A lower absorbance indicates a higher antioxidant activity. […] The results are shown in Tables 3 and 4 (see FIGS. 3 and 7).
On the technique in general: Loss of DPPH colour is used to gauge radical scavenging.

The format of test [3] is biochemical. On the procedure:
First, 50 μL of potassium ferricyanide and 20 μL of each sample were added to 50 μL of a 0.2 M phosphate buffer solution (pH 6.6) and the mixture was allowed to react at 50° C. for 20 min. After completion of the reaction, 50 μL of a 10% TCA solution was added, followed by centrifugation at 3000×g for 20 min. 100 μL of the supernatant, 200 μL of triple-distilled water, and 20 μL of 0.1% ferric chloride were added, and the absorbance was measured at 700 nm. Trolox and BHA were used as positive controls.

Like-named read-outs stand apart in the source and are kept apart here.

`O=C1O[C@H]([C@@H](O)CO)C(O)=C1O` [Ascorbic acid, ascorbic acid]: the “ABTS scavenging activities (IC50) AVERAGE” value in test [1] (yeast extracts 1) and in test [1] (yeast extracts 2) was 260 µg/mL throughout. For the same molecule, the “DPPH scavenging activities (IC50) AVERAGE” value in test [2] (yeast extracts 1) and in test [2] (yeast extracts 2) was 10 µg/mL throughout. In addition, the “Reducing power activities (absorbance at 700 nm)” value came out at 0.058 ± 0.001 in test [3] (yeast extract 2, 15.625 μg/mL); 0.267 ± 0.002 in test [3] (yeast extract 2, 62.5 μg/mL); 0.940 ± 0.005 in test [3] (yeast extract 2, 250 μg/mL); 1.146 ± 0.008 in test [3] (yeast extract 2, 1000 μg/mL); 0.058 ± 0.001 in test [3] (yeast extracts 1, 15.625 μg/mL); 0.267 ± 0.002 in test [3] (yeast extracts 1, 62.5 μg/mL). The “Reducing power activities (absorbance at 700 nm)” value in test [3] (yeast extracts 1, 250 μg/mL) was determined as 0.940 ± 0.005; in test [3] (yeast extracts 1, 1000 μg/mL), 1.146 ± 0.008.
